Data on two molecules can be found in publication PMC8546428, “Convergent olfactory trace amine-associated receptors detect biogenic polyamines with distinct motifs via a conserved binding site” (The Journal of Biological Chemistry, 2021).

Where a chain is given by its changes, count along the chain named.

For experiment [1], the target named is T1, mTAAR9 W7.40F (Mus musculus, UniProt Q5QD04, W298F).
T1 construct: expressed in transfected cells; host or cells: Hana3A (HEK293-derived)
T1 sequence (Q5QD04 1-348 W298F): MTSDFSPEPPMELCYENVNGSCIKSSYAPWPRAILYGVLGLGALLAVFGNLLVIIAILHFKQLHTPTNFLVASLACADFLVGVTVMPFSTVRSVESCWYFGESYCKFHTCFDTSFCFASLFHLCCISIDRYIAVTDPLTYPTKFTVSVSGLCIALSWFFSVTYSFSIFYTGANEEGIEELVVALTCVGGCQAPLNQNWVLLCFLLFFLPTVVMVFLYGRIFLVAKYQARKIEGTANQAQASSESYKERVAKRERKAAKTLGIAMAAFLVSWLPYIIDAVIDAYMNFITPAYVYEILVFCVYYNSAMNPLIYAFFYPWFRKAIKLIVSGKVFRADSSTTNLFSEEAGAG
Put plainly: CRE-luciferase reporter assay, mTAAR9 mutant in Hana3A. In kind it is cell-based. To be noted: read-out: EC50 (mean ± S.D., n = 3). Background: Reporter assays use an easily measured gene product as a stand-in for the process of interest.

Experiment [2] deals with T2, mTAAR8c (Mus musculus, UniProt Q5QD05).
T2 construct: expressed in transfected cells; host or cells: Hana3A (HEK293-derived)
Put plainly: CRE-luciferase reporter assay in Hana3A, mouse olfactory TAARs. In kind it is cell-based. The settings on record: ligand 500 μM, Fig. 1D. As for the experimental part:
(§1) Mammalian TAAR9 plasmids were transfected into Hana3A cells along with a cAMP-dependent luciferase reporter plasmid (CRE-Luc). Transfected cells were incubated with tested ligands, and luciferase activity was quantified with a […] substrate as a reporter for Golf-mediated TAAR activation. Luciferase activity was indicated by the luminescence value and normalized as a fold-increase over the response to the vehicle stimuli (mean ± S.D., n = 3). […] B, Hana3A cells expressing mouse, rat, human, cat, hamster, and rabbit TAAR9 were incubated with either vehicle or tested ligands (1 mM) and assayed for reporter activity. C, concentration-dependent luciferase activity in Hana3A cells expressing mouse, rat, and cat TAAR9 receptors stimulated with cadaverine, spermidine, and spermine.
(§2) We then sought to determine if other mouse olfactory TAARs are activated by the mTAAR9 ligands.
(§3) The firefly luciferase and renilla luciferase activity was measured with a BioTek microplate reader following manufacturer’s instructions.

For experiment [3], the target named is T3, mTAAR9 Y6.51W (Mus musculus, UniProt Q5QD04, Y274W).
T3 construct: expressed in transfected cells; host or cells: Hana3A (HEK293-derived)
T3 sequence (Q5QD04 1-348 Y274W): T1 sequence (Q5QD04 1-348 W298F) with Y274W, F298W
Put plainly: CRE-luciferase reporter assay, mTAAR9 mutant in Hana3A. In kind it is cell-based. To be noted: read-out: EC50 (mean ± S.D., n = 3).

Experiment [4] addresses T4, WT mTAAR9 (Mus musculus, UniProt Q5QD04).
T4 construct: Rho-tag (first 20 amino acids of bovine rhodopsin) (N); expressed in transfected cells; host or cells: Hana3A (HEK293-derived)
T4 sequence (Q5QD04 1-348): T1 sequence (Q5QD04 1-348 W298F) with F298W
Put plainly: CRE-luciferase reporter assay, wild-type mTAAR9 in Hana3A. Format: cell-based. The settings on record: WT mTAAR9, Hana3A, CRE-luciferase; read-out: EC50 (mean ± S.D., n = 3). As for the experimental part: as §1, §3

For experiment [5], the target named is T5, mTAAR9 W7.40A (Mus musculus, UniProt Q5QD04, W298A).
T5 construct: expressed in transfected cells; host or cells: Hana3A (HEK293-derived)
T5 sequence (Q5QD04 1-348 W298A): T1 sequence (Q5QD04 1-348 W298F) with F298A
Put plainly: CRE-luciferase reporter assay, mTAAR9 mutant in Hana3A. In kind it is cell-based. The settings on record: read-out: EC50 (mean ± S.D., n = 3).

In experiment [6] the target is T6, mTAAR9 E7.36D (Mus musculus, UniProt Q5QD04, E294D).
T6 construct: expressed in transfected cells; host or cells: Hana3A (HEK293-derived)
T6 sequence (Q5QD04 1-348 E294D): T1 sequence (Q5QD04 1-348 W298F) with E294D, F298W
Described as above. To be noted: read-out: EC50 (mean ± S.D., n = 3). Format: cell-based.

The target of experiment [7] is T7, Rat TAAR9 (Rattus norvegicus, UniProt Q923Y6).
T7 construct: expressed in transfected cells; host or cells: Hana3A (HEK293-derived)
T7 sequence (Q923Y6 1-338): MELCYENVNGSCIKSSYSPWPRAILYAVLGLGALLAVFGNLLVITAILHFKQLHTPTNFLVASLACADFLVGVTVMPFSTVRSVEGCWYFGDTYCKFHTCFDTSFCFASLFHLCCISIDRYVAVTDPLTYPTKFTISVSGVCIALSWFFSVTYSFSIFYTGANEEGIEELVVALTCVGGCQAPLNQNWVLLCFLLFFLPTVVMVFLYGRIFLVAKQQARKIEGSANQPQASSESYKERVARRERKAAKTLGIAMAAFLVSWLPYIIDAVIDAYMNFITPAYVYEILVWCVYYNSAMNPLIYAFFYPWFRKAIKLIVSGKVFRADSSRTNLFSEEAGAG
Put plainly: CRE-luciferase reporter assay in Hana3A. The settings on record: rat TAAR9, ligand 1 mM, Fig. 1B. Format: cell-based. As to the method: We examined the response of TAAR9s from rat, human, hamster, and rabbit to the stimulation of 1 mM amines using a well-established cAMP response element (CRE)-driven luciferase reporter assay based on Golf-mediated cAMP signal transduction ([5], [24]). In addition to the four mTAAR9 ligands, we included putrescine, which is also a polyamine and precursor of spermine/spermidine biosynthesis.
as §1, §3

In experiment [8] the target is T8, mTAAR9 W7.40Y (Mus musculus, UniProt Q5QD04, W298Y).
T8 construct: expressed in transfected cells; host or cells: Hana3A (HEK293-derived)
Put plainly: CRE-luciferase reporter assay, mTAAR9 mutant in Hana3A. Format: cell-based. To be noted: read-out: EC50 (mean ± S.D., n = 3).

The target in experiment [9] is mTAAR7f (Mus musculus, UniProt Q5QD08). To be noted: ligand 500 μM, Fig. 1D. As to the method:
as §1, §2, §3

Experiment [10] deals with mTAAR5 (Mus musculus, UniProt Q5QD14). The settings on record: mTAAR5, ligand 500 μM, Fig. 1D. As for the experimental part: as §1, §2, §3
Sequence of mTAAR5 (Q5QD14 whole entry): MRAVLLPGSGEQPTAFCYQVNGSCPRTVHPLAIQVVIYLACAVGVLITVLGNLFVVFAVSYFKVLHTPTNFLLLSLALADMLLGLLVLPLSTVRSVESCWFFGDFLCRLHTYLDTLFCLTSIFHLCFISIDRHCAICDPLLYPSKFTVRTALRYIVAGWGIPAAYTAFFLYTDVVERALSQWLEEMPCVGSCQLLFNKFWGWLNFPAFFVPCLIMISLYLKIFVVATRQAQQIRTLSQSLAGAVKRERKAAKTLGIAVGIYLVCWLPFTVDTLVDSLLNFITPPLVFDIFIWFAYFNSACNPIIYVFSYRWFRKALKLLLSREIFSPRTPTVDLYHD

T2 sequence (Q5QD05 whole entry): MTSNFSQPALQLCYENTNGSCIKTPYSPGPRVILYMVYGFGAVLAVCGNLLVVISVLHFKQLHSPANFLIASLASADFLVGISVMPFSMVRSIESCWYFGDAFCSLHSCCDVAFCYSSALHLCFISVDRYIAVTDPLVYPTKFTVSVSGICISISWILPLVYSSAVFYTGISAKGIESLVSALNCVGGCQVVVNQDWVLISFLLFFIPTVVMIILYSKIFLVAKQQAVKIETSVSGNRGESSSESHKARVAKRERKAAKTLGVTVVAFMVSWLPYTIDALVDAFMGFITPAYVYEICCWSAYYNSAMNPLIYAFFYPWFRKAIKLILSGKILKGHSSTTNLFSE
Sequence of mTAAR7f (Q5QD08 whole entry): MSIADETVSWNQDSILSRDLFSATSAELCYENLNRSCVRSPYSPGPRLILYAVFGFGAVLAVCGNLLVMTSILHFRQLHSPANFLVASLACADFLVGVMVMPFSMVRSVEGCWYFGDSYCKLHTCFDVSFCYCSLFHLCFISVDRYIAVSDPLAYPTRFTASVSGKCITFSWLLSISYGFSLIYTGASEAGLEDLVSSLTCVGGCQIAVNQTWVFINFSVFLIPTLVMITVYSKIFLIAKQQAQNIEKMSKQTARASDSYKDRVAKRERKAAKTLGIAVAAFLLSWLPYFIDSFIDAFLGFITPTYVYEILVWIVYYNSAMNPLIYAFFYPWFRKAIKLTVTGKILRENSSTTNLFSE
T8 sequence (Q5QD04 whole entry W298Y): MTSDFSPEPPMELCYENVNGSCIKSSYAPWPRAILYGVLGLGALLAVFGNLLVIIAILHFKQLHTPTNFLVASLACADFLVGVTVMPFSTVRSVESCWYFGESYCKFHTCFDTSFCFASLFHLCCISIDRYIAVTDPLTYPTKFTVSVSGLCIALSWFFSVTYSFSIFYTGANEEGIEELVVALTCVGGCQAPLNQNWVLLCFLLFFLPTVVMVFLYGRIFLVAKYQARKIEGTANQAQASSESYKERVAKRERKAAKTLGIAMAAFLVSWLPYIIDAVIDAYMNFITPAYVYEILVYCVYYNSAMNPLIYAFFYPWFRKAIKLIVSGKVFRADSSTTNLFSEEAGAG

In general, EC50 refers to the concentration that produces a half-maximal response. As to `NCCCCNCCCN` [spermidine], the half-maximal effective concentration (EC50) in [1] was 9 ± 7 µM; in experiment [3], over 1000 µM; in experiment [4], 43 ± 7 µM; in experiment [5], 68 ± 48 µM; in [6] it was 142 ± 43 µM; in experiment [8], 2 ± 0.5 µM. For the same molecule, in experiment [2], the reporter activity entry is given as “modest activity”. Besides, in [7], the “reporter activity (activation of TAAR9)” value is listed as “maximum responses”.
As to `CCN(CC)CC` [triethylamine], the half-maximal effective concentration (EC50) in experiment [1] was 36 ± 16 µM; in experiment [3] it was 355 ± 80 µM; in experiment [4], 251 ± 82 µM; in experiment [5], over 1000 µM; in experiment [6], over 1000 µM. Further, the reporter activity result in [2] was “moderate activities”; in [9] it was “robust responses”; in experiment [10], “moderate activities”.
